Structures can show the parent of a compound that is named as a salt. Where two headings read alike, the source gives them in different places.

The record followed here is patent US9388195B2, “Heterocyclic compound” (Takeda Pharmaceutical Company Limited, priority 2010, dated 2016).

This experiment deals with T1, Cdc7/Dbf4 complex (Homo sapiens, UniProt O00311).
T1 construct: Full-length Cdc7 co-expressed with full-length Dbf4; purchased Carna Biosciences (Kobe)
Nature of the experiment: Measurement of Cdc7 kinase inhibitory activity (Transcreener ADP HTRF assay). The experiment is classed as biochemical. As for the experimental part:
Full-length Cdc7 co-expressed with full-length Dbf4 was purchased from Carna Biosciences (Kobe). The enzyme activity of Cdc7/Dbf4 complex was detected by homogeneous time-resolved fluorescence method Transcreener ADP assay (Cisbio Inc., MA, U.S.A.). […] Free ADP produced by ATP hydrolysis was detected by Eu^3+-Cryptate-labeled anti-ADP monoclonal antibody competitively with d2-labeled ADP, and the production amount thereof was measured. The obtained time-resolved fluorescence resonance energy transfer signal was measured by EnVision (Perkin Elmer Inc., MA, U.S.A.). The inhibitory rate (%) of the test compound to Cdc7 was calculated by the following formula. Inhibitory rate(%)=(1−(count of test compound-blank)[…](control-blank))×100
The count of the Cdc7/Dbf4 reaction mixture under compound-free conditions was taken as the control, and that under compound-free and Cdc7/Dbf4-free conditions was taken as the blank.

Where [1] appears, read: test compound 1 μM, Cdc7/Dbf4, 1.0 μm ATP, 10 μg/ml MCM2, read-out: inhibitory rate (%) at 1 μM.
[2] abbreviates: read-out: inhibitory rate (%) at 1 μM, test compound 1 μM, Cdc7/Dbf4, 1.0 μm ATP, 10 μg/ml MCM2.
Setting [3] is: read-out: inhibitory rate (%) at 1 μM.

T1 sequence (O00311 whole entry): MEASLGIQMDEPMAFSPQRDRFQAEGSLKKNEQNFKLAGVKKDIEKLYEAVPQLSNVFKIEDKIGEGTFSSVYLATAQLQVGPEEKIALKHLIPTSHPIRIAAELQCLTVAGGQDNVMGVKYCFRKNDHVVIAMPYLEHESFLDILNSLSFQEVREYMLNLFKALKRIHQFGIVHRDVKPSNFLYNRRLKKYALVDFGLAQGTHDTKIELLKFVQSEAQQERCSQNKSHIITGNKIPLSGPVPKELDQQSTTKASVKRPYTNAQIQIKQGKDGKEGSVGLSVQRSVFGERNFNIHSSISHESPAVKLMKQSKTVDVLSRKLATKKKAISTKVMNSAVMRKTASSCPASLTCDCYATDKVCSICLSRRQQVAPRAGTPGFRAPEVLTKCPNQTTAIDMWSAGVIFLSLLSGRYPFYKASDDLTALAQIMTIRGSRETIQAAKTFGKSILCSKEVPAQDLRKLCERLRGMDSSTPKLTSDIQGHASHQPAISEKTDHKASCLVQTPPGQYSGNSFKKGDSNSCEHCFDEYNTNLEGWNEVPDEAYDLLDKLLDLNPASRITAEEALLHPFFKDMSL
T1 sequence (Q9UBU7 whole entry partner): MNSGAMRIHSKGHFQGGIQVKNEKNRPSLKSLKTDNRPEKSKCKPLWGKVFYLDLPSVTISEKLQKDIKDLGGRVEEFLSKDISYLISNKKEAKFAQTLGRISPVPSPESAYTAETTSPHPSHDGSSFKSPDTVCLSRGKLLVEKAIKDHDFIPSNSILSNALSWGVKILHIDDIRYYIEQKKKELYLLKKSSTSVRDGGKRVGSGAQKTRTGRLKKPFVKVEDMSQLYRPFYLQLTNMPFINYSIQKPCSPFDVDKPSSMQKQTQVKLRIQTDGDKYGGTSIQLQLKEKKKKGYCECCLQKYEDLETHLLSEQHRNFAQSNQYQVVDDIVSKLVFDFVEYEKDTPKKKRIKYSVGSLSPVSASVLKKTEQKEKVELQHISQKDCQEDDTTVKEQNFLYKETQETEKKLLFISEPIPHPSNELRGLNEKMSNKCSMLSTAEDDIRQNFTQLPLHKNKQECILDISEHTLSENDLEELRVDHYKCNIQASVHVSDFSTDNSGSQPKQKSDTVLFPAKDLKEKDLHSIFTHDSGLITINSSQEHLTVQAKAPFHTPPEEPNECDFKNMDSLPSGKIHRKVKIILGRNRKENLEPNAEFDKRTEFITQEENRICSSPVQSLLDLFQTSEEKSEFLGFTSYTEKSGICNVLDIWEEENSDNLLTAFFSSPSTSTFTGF

Regarding `Cc1[nH]ncc1-c1cc2nc([C@H]3NC[C@H]4C[C@H]43)[nH]c(=O)c2s1` (relative stereo) [Example 87, 2-[(1R*,2S*,5S*)-3-azabicyclo[3.1.0]hex-2-yl]-6-(5-methyl-1H-pyrazol-4-yl)thieno[3,2-d]pyrimidin-4 (3H)-one dihydrochloride], the inhibition at 1 µM under setting [1] is 107%.

On to `Cc1[nH]ncc1-c1cc2nc([C@H]3NC[C@@H]4C[C@@H]43)[nH]c(=O)c2s1` (relative stereo) [Example 110, 2-[(1S*,2S*,5R*)-3-azabicyclo[3.1.0]hex-2-yl]-6-(5-methyl-1H-pyrazol-4-yl)thieno[3,2-d]pyrimidin-4 (3H)-one dihydrochloride], for which the inhibition at 1 µM under setting [1] came out at 100%.

With `Cc1[nH]ncc1-c1cc2nc([C@H]3CCCC[C@@H]3N)[nH]c(=O)c2s1` (relative stereo) [Example 129, 2-[(1R*,2R*)-2-aminocyclohexyl]-6-(5-methyl-1H-pyrazol-4-yl)thieno[3,2-d]pyrimidin-4 (3H)-one dihydrochloride], under setting [1], the inhibition at 1 µM was found to be 108%.

Consider `Cc1[nH]ncc1-c1cc2nc(C3CCCC3N)[nH]c(=O)c2s1` (single isomer, unassigned) [Example 137, 2-(2-aminocyclopentyl)-6-(5-methyl-1H-pyrazol-4-yl)thieno[3,2-d]pyrimidin-4 (3H)-one dihydrochloride], for which, under setting [1], the inhibition at 1 µM worked out at 97%.

For the compound `Cc1[nH]ncc1-c1cc2nc(-c3ccccc3Cl)[nH]c(=O)c2s1` [Example 1, 2-(2-chlorophenyl)-6-(5-methyl-1H-pyrazol-4-yl)thieno[3,2-d]pyrimidin-4 (3H)-one], under setting [1], the inhibition at 1 µM is 97%.

For `Cc1[nH]ncc1-c1cc2nc(CN3CC[C@H](F)C3)[nH]c(=O)c2s1` [Example 4, 2-{[(3S)-3-fluoropyrrolidin-1-yl]methyl}-6-(5-methyl-1H-pyrazol-4-yl)thieno[3,2-d]pyrimidin-4 (3H)-one], the inhibition at 1 µM under setting [1] stood at 102%.

Regarding `Cc1[nH]ncc1-c1cc2nc([C@@H]3CCCN3)[nH]c(=O)c2s1` [Example 11, 6-(5-methyl-1H-pyrazol-4-yl)-2-[(2S)-pyrrolidin-2-yl]thieno[3,2-d]pyrimidin-4 (3H)-one monotrifluoroacetate], the inhibition at 1 µM under setting [2] stood at 103%.

Regarding `Cc1[nH]ncc1-c1cc2nc([C@@H]3C[C@@H](F)CN3)[nH]c(=O)c2s1` [Example 23, 2-[(2S,4R)-4-fluoropyrrolidin-2-yl]-6-(5-methyl-1H-pyrazol-4-yl)thieno[3,2-d]pyrimidin-4 (3H)-one dihydrochloride], the inhibition at 1 µM under setting [1] is 98.4%.

For the compound `Cc1[nH]ncc1-c1cc2nc(C3CCCCN3)[nH]c(=O)c2s1` (stereo not shown) [Example 71, 6-(5-methyl-1H-pyrazol-4-yl)-2-(piperidin-2-yl)thieno[3,2-d]pyrimidin-4 (3H)-one dihydrochloride], under setting [2], the inhibition at 1 µM stood at 109%.

As for `Cc1[nH]ncc1-c1cc2nc(C3COCCN3)[nH]c(=O)c2s1` (stereo not shown) [Example 72, 6-(5-methyl-1H-pyrazol-4-yl)-2-(morpholin-3-yl)thieno[3,2-d]pyrimidin-4 (3H)-one dihydrochloride], the inhibition at 1 µM under setting [1] is 102%.

Turning to `Cc1[nH]ncc1-c1cc2nc(CN3CC=CCC3)[nH]c(=O)c2s1` [Example 75, 2-(3,6-dihydropyridin-1(2H)-ylmethyl)-6-(5-methyl-1H-pyrazol-4-yl)thieno[3,2-d]pyrimidin-4 (3H)-one], the inhibition at 1 µM under setting [1] turned out to be 107%.

For the compound `Cc1[nH]ncc1-c1cc2nc([C@@H]3CCC(C)(C)N3)[nH]c(=O)c2s1` [Example 76, 2-[(2S)-5,5-dimethylpyrrolidin-2-yl]-6-(5-methyl-1H-pyrazol-4-yl)thieno[3,2-d]pyrimidin-4 (3H)-one], the inhibition at 1 µM under setting [3] came to 106%.

For `Cc1[nH]ncc1-c1cc2nc([C@@H]3CCN3)[nH]c(=O)c2s1` [Example 77, 2-[(2S)-azetidin-2-yl]-6-(5-methyl-1H-pyrazol-4-yl)thieno[3,2-d]pyrimidin-4 (3H)-one], under setting [3], the inhibition at 1 µM came out at 108%.

`Cc1[nH]ncc1-c1cc2nc([C@@H]3C[C@@H]4CCCC[C@@H]4N3)[nH]c(=O)c2s1` [Example 78, 6-(5-methyl-1H-pyrazol-4-yl)-2-[(2S,3aS,7aS)-octahydro-1H-indol-2-yl]thieno[3,2-d]pyrimidin-4 (3H)-one]: the inhibition at 1 µM under setting [1] turned out to be 86.2%.

For `Cc1[nH]ncc1-c1cc2nc(C3CCCCCN3)[nH]c(=O)c2s1` (stereo not shown) [Example 79, 2-(azepan-2-yl)-6-(5-methyl-1H-pyrazol-4-yl)thieno[3,2-d]pyrimidin-4 (3H)-one], under setting [3], the inhibition at 1 µM was 93.3%.

As for `Cc1[nH]ncc1-c1cc2nc(C3(C)CCCN3)[nH]c(=O)c2s1` (stereo not shown) [Example 82, 6-(5-methyl-1H-pyrazol-4-yl)-2-(2-methylpyrrolidin-2-yl)thieno[3,2-d]pyrimidin-4 (3H)-one dihydrochloride], under setting [2], the inhibition at 1 µM came to 105%.

For `Cc1[nH]ncc1-c1cc2nc([C@H]3CCCCN3)[nH]c(=O)c2s1` [Example 85, 6-(5-methyl-1H-pyrazol-4-yl)-2-[(2R)-piperidin-2-yl]thieno[3,2-d]pyrimidin-4 (3H)-one dihydrochloride], the inhibition at 1 µM under setting [2] stood at 103%.

For `Cc1[nH]ncc1-c1cc2nc([C@@H]3CCCN3C)[nH]c(=O)c2s1` [Example 88, 6-(5-methyl-1H-pyrazol-4-yl)-2-[(2S)-1-methylpyrrolidin-2-yl]thieno[3,2-d]pyrimidin-4 (3H)-one dihydrochloride], under setting [3], the inhibition at 1 µM worked out at 101%.

On to `Cc1[nH]ncc1-c1cc2nc([C@@H]3C[C@H](C)CN3)[nH]c(=O)c2s1` [Example 92, 6-(5-methyl-1H-pyrazol-4-yl)-2-[(2S,4S)-4-methylpyrrolidin-2-yl]thieno[3,2-d]pyrimidin-4 (3H)-one dihydrochloride], for which, under setting [3], the inhibition at 1 µM was 108%.

With `Cc1[nH]ncc1-c1cc2nc([C@H]3CCCCCN3)[nH]c(=O)c2s1` [Example 101, 2-[(2R)-azepan-2-yl]-6-(5-methyl-1H-pyrazol-4-yl)thieno[3,2-d]pyrimidin-4 (3H)-one], under setting [3], the inhibition at 1 µM is 96.2%.

Turning to `Cc1[nH]ncc1-c1cc2nc([C@@H]3CCCCCN3)[nH]c(=O)c2s1` [Example 102, 2-[(2S)-azepan-2-yl]-6-(5-methyl-1H-pyrazol-4-yl)thieno[3,2-d]pyrimidin-4 (3H)-one], the inhibition at 1 µM under setting [3] came out at 95.9%.

Turning to `Cc1[nH]ncc1-c1cc2nc([C@]3(C)CCCN3)[nH]c(=O)c2s1` [Example 103, 6-(5-methyl-1H-pyrazol-4-yl)-2-[(2S)-2-methylpyrrolidin-2-yl]thieno[3,2-d]pyrimidin-4 (3H)-one dihydrochloride], the inhibition at 1 µM under setting [2] was 96.7%.

Consider `Cc1[nH]ncc1-c1cc2nc([C@H]3NC4CCC3CC4)[nH]c(=O)c2s1` [Example 108, 2-[(3S)-2-azabicyclo[2.2.2]oct-3-yl]-6-(5-methyl-1H-pyrazol-4-yl)thieno[3,2-d]pyrimidin-4 (3H)-one dihydrochloride], for which the inhibition at 1 µM under setting [1] was 103%.

For `Cc1[nH]ncc1-c1cc2nc([C@@H]3NC[C@@H]4C[C@@H]43)[nH]c(=O)c2s1` [Example 112, 2-[(1S,2R,5R)-3-azabicyclo[3.1.0]hex-2-yl]-6-(5-methyl-1H-pyrazol-4-yl)thieno[3,2-d]pyrimidin-4 (3H)-one dihydrochloride], under setting [1], the inhibition at 1 µM stood at 105%.

Consider `Cc1[nH]ncc1-c1cc2nc([C@H]3NC[C@H]4C[C@H]43)[nH]c(=O)c2s1` [Example 113, 2-[(1R,2S,5S)-3-azabicyclo[3.1.0]hex-2-yl]-6-(5-methyl-1H-pyrazol-4-yl)thieno[3,2-d]pyrimidin-4 (3H)-one dihydrochloride], for which the inhibition at 1 µM under setting [1] stood at 124%.

As for `Cc1[nH]ncc1-c1cc2nc(C3C[C@@H]4CCC[C@@H]4N3)[nH]c(=O)c2s1` (stereo partly drawn) [Example 123, 6-(5-methyl-1H-pyrazol-4-yl)-2-[(3aS,6aS)-octahydrocyclopenta[b]pyrrol-2-yl]thieno[3,2-d]pyrimidin-4 (3H)-one], under setting [1], the inhibition at 1 µM was found to be 97%.

In the case of `CNCc1nc2cc(-c3cn[nH]c3C)sc2c(=O)[nH]1` [Example 133, 2-[(methylamino)methyl]-6-(5-methyl-1H-pyrazol-4-yl)thieno[3,2-d]pyrimidin-4 (3H)-one dihydrochloride], the inhibition at 1 µM under setting [1] was found to be 107%.

On to `Cc1[nH]ncc1-c1cc2nc(C(C)(C)N)[nH]c(=O)c2s1` [Example 135, 2-(1-amino-1-methylethyl)-6-(5-methyl-1H-pyrazol-4-yl)thieno[3,2-d]pyrimidin-4 (3H)-one dihydrochloride], for which, under setting [1], the inhibition at 1 µM stood at 111%.

Regarding `Cc1[nH]ncc1-c1cc2nc(C3CC=CCN3)[nH]c(=O)c2s1` (stereo not shown) [Example 136, 6-(5-methyl-1H-pyrazol-4-yl)-2-(1,2,3,6-tetrahydropyridin-2-yl)thieno[3,2-d]pyrimidin-4 (3H)-one dihydrochloride], under setting [2], the inhibition at 1 µM was determined as 91%.

Consider `Cc1[nH]ncc1-c1cc2nc(C3CCCC3N)[nH]c(=O)c2s1` (stereo not shown) [Example 139, 2-(2-aminocyclopentyl)-6-(5-methyl-1H-pyrazol-4-yl)thieno[3,2-d]pyrimidin-4 (3H)-one dihydrochloride], for which the inhibition at 1 µM under setting [1] was found to be 106%.

In the case of `Cc1[nH]ncc1-c1cc2nc([C@H]3NCC[C@@H]3C)[nH]c(=O)c2s1` [Example 140, 6-(5-methyl-1H-pyrazol-4-yl)-2-[(2S,3S)-3-methylpyrrolidin-2-yl]thieno[3,2-d]pyrimidin-4 (3H)-one dihydrochloride], under setting [3], the inhibition at 1 µM was found to be 100%.
